Laboratory results from publication PMC7865145, “Identification of existing pharmaceuticals and herbal medicines as inhibitors of SARS-CoV-2 infection” (Proceedings of the National Academy of Sciences of the …, 2021).
Like-named read-outs stand apart in the source and are kept apart here.

Experiments:
[1] = tested on: SARS-CoV-2 (hCoV-19/Taiwan/4/2020); experiment: microbe, parasite or virus in culture; type: cell-based
[2] = tested on: SARS-CoV-2; experiment: Quantification of SARS-CoV-2 via antibody staining (viral NP protein) in Vero E6 cells; type: cell-based; conditions: for IC50: viral titer by antinucleocapsid antibody; for selectivity index (antiviral effect vs cytotoxicity): Vero E6, CC50 vs IC50
[3] = molecular target: Papain-like protease (nsp3) of SARS-CoV-2 (Severe acute respiratory syndrome coronavirus 2, UniProt P0DTD1); experiment: biochemical; type: biochemical; conditions: 100 uM, FRET-based enzymatic assay, 3 independent experiments, N.I. = no inhibition; for inhibition at 100 µM: read-out: Inhibition % at 100 uM of compounds, Papain-like protease (nsp3)
[4] = in vitro; conditions: African green monkey, CC50 (μM); for CC50: Vero E6 cells
[5] = Cytotoxicity study of compounds with Vero E6 cells (CCK-8); conditions: African green monkey, Vero E6 cells, CC50 (μM)
[6] = tested on: Vero E6 cells; experiment: as above
[7] = tested on: SARS-CoV-2; experiment: In vivo anti-SARS-CoV-2 assay, lung virus load; conditions: female golden Syrian hamsters, intranasal infection day 0, oral twice a day 30 mg/kg/d for 3 d, n = 5
[8] = tested on: Vero E6 cells
[9] = Severe acute respiratory syndrome coronavirus 2, Vero C1008, minimal dose that showed antiinfective effect after virus challenge, incubation 72 h (D3), Vero E6, read-out: CPE (μM) D3
[10] = minimal dose that showed antiinfective effect after virus challenge, incubation 120 h (D5), Vero E6, N.I. = no inhibition, dash = cytotoxicity was observed
[11] = 100 PFU of SARS-CoV-2 (multiplicity of infection 0.025) in Vero E6 cells
[12] = Severe acute respiratory syndrome coronavirus 2, Vero C1008, 100 PFU of SARS-CoV-2 (multiplicity of infection 0.025) in Vero E6 cells
[13] = Severe acute respiratory syndrome coronavirus 2, Vero C1008, minimal dose that showed antiinfective effect after virus challenge, incubation 120 h (D5), Vero E6, N.I. = no inhibition, dash = cytotoxicity was observed, read-out: CPE (μM) D5
[14] = Severe acute respiratory syndrome coronavirus 2, Vero C1008, 72 h, read-out: CPE (μM) D3
[15] = Severe acute respiratory syndrome coronavirus 2, Vero C1008, 120 h, […], N.I. = no inhibition, dash = cytotoxicity was observed, read-out: CPE (μM) D5

SMILES | minimal effective concentration [1, 9] | IC50 [2, 11] | IC50 [2, 12] | Inhibition % at 100 uM of compounds, Papain-like protease (nsp3) [3] | CC50 at 24 h [4] | minimal effective concentration [1, 13] | minimal effective concentration [1, 14] | minimal effective concentration [1, 15] | CC50 [4] | further results
CC1=C(C(=O)OC(C)C)C(c2cccc([N+](=O)[O-])c2)C(C(=O)OC2CN(C(c3ccccc3)c3ccccc3)C2)=C(N)N1 (centres unmarked) [Azelnidipine 10, Azelnidipine] | 5 µM | 5.3 µM | 5.29 µM | N.I. | 12.9 µM |  |  |  |  | CPE (μM) D5 [1, 10]: N.I.
CC(C)(C)NC(=O)N[C@H](C(=O)N1C[C@H]2[C@@H]([C@H]1C(=O)NC(CC1CCC1)C(=O)C(N)=O)C2(C)C)C(C)(C)C (some centres unmarked) [Boceprevir 2, Boceprevir] | 10 µM | 50.1 µM | > 50 µM | N.I. |  | 10 µM |  |  |  | 
COc1ccc2cc1Oc1ccc(cc1)C[C@H]1c3c(cc4c(c3Oc3cc5c(cc3OC)CCN(C)[C@@H]5C2)OCO4)CCN1C [Cepharanthine 4, Cepharanthine] |  |  | 2.8 µM |  | 12.9 µM |  | 3.75 µM | 7.5 µM |  | inhibition at 100 µM [3]: 31.9%
CCCCc1oc2ccc(NS(C)(=O)=O)cc2c1C(=O)c1ccc(OCCCN(CCCC)CCCC)cc1 [Dronedarone 12, Dronedarone] | 7.5 µM | 4.5 µM | 4.51 µM | significant inhibition | 12.1 µM |  |  |  |  | CPE (μM) D5 [1, 10]: N.I.; inhibition at 100 µM [3]: 78.6%
CC[C@H]1CN2CCc3cc(OC)c(OC)cc3[C@@H]2C[C@@H]1C[C@H]1NCCc2cc(OC)c(OC)cc21 [Emetine 5, Emetine] |  | 0.0004 µM | 0.000397 µM |  |  |  | 5 µM | 10 µM | > 10 µM | 
CC(C)(C)c1cc(C(C)(C)C)c(NC(=O)c2c[nH]c3ccccc3c2=O)cc1O [Ivacaftor 9, Ivacaftor] |  |  | 3.7 µM | N.I. |  |  | 5 µM |  |  | CPE (μM) D5 ([1]; […], N.I. = no inhibition, dash = cytotoxicity was observed): N.I.; CC50 at 24 h [5]: 12.9 µM
CC[C@H](C)[C@H]1O[C@]2(CC[C@@H]1C)C[C@@H]1C[C@@H](C/C=C(\C)[C@@H](O[C@H]3C[C@H](OC)[C@@H](O[C@H]4C[C@H](OC)[C@@H](O)[C@H](C)O4)[C@H](C)O3)[C@@H](C)/C=C/C=C3\CO[C@@H]4[C@H](O)C(C)=C[C@@H](C(=O)O1)[C@]34O)O2 [Ivermectin 6, Ivermectin] |  |  | 4.1 µM | N.I. |  |  | 2.5 µM |  | 13.2 µM | cytotoxicity in the cell-based assay ([6]; Vero E6): high cytotoxicity
CO[C@@H]1[C@@H](OC)[C@H](C)[C@@](O)(CC(=O)O)O[C@H]1[C@H](C)[C@H]1O[C@@]2(CC[C@@](C)([C@H]3CC[C@@](C)([C@@H]4O[C@@H]([C@H]5O[C@](C)(O)[C@H](C)C[C@@H]5C)C[C@@H]4O[C@@H]4C[C@H](OC)[C@@H](OC)[C@H](C)O4)O3)O2)C[C@H](O)[C@H]1C [Maduramicin 15, Maduramicin] |  | 1.3 µM | 1.32 µM | N.I. |  |  | 0.039 µM | 0.117 µM | 6.39 µM | selectivity index (antiviral effect vs cytotoxicity) [2]: no selectivity
OC(c1cc(C(F)(F)F)nc2c(C(F)(F)F)cccc12)C1CCCCN1 (centres unmarked) [Mefloquine 8, Mefloquine] | 5 µM | 3.2 µM | 3.24 µM | N.I. |  | 10 µM |  |  |  | lung virus load vs control (drugs) [7]: significantly reduced viral load
CC[C@@]1([C@@H]2O[C@@H]([C@H]3O[C@@](O)(CO)[C@H](C)C[C@@H]3C)C[C@@H]2C)CC[C@H]([C@]2(C)CC[C@]3(C[C@H](O)[C@@H](C)[C@@H]([C@@H](C)[C@@H](OC)[C@H](C)C(=O)O)O3)O2)O1 [Monensin 14, Monensin] |  | 6.4 µM | 6.38 µM | N.I. |  |  | 0.117 µM | 2.5 µM | 6.66 µM | selectivity index (antiviral effect vs cytotoxicity) [2]: no selectivity; CC50 ([6]; Vero E6 cells): 6.6 µM
CO/N=C1\C[C@]2(C[C@@H]3C[C@@H](C/C=C(\C)C[C@@H](C)/C=C/C=C4\CO[C@@H]5[C@H](O)C(C)=C[C@@H](C(=O)O3)[C@]45O)O2)O[C@H](/C(C)=C/C(C)C)[C@H]1C [Moxidectin 7, Moxidectin] | 5 µM | 3.1 µM | 3.17 µM | N.I. | 6.88 µM | 10 µM |  |  |  | cytotoxicity in the cell-based assay [8]: high cytotoxicity; CC50 ([8]; African green monkey, 24 h): 6.9 µM
Cc1c(O)cccc1C(=O)N[C@@H](CSc1ccccc1)[C@H](O)CN1C[C@H]2CCCC[C@H]2C[C@H]1C(=O)NC(C)(C)C [Nelfinavir 1, Nelfinavir] | 5 µM |  | 3.3 µM |  |  | 10 µM |  |  |  | fold higher anti-SARS-CoV-2 activity than boceprevir in the cell-based assay ([2]; Vero E6): 15 fold; inhibition at 100 µM [3]: 3.5%; lung virus load vs control (drugs) [7]: good antiviral effects; CC50 at 24 h [5]: 12.3 µM
OC1(c2ccc(Cl)c(C(F)(F)F)c2)CCN(CCCC(c2ccc(F)cc2)c2ccc(F)cc2)CC1 [Penfluridol 11, Penfluridol] | 5 µM | 2.4 µM | 2.41 µM | N.I. |  | 10 µM |  |  |  | CC50 at 24 h [5]: 12.9 µM
